Assay results as given in ChEMBL document CHEMBL1201862, “PubChem BioAssay data set” (2004).
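Grown in 96-well plates, cells were treated for 48 hours with each compound at five concentrations. Insufficient inhibition: endpoint recorded as highest concentration tested. GI50 = concentration required for 50% inhibition of growth.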 The source made the active and inactive calls. No stated cut-off is given here; in the data, active = GI50 up to about 1.1 µM and inactive = higher.

Legend:
Assay in all cases: NCI tumour cell line growth inhibition, 48 h
786-0 = tested on: 786-0
A498 = tested on: A498
A549 = tested on: A549
ACHN = tested on: ACHN
BT-549 = tested on: BT-549
CAKI-1 = tested on: CAKI-1
CCRF-CEM = tested on: CCRF-CEM
COLO 205 = tested on: COLO 205
DU-145 = tested on: DU-145
EKVX = tested on: EKVX
HCC 2998 = tested on: HCC 2998
HCT-116 = tested on: HCT-116
HCT-15 = tested on: HCT-15
HL-60 = tested on: HL-60
HOP-62 = tested on: HOP-62
HOP-92 = tested on: HOP-92
HT-29 = tested on: HT-29
Hs-578T = tested on: Hs-578T
IGROV-1 = tested on: IGROV-1
K562 = tested on: K562
KM12 = tested on: KM12
LOX IMVI = tested on: LOX IMVI
M14 = tested on: M14
MDA-MB-231 = tested on: MDA-MB-231
MDA-MB-435 = tested on: MDA-MB-435
MDA-N = tested on: MDA-N
MOLT-4 = tested on: MOLT-4
Malme-3M = tested on: Malme-3M
NCI-H226 = tested on: NCI-H226
NCI-H23 = tested on: NCI-H23
NCI-H460 = tested on: NCI-H460
NCI-H522 = tested on: NCI-H522
NCI/ADR-RES = tested on: NCI/ADR-RES
OVCAR-3 = tested on: OVCAR-3
OVCAR-4 = tested on: OVCAR-4
OVCAR-5 = tested on: OVCAR-5
OVCAR-8 = tested on: OVCAR-8
PC-3 = tested on: PC-3
RPMI-8226 = tested on: RPMI-8226
RXF 393 = tested on: RXF 393
SF-268 = tested on: SF-268
SF-295 = tested on: SF-295
SF-539 = tested on: SF-539
SK-MEL-28 = tested on: SK-MEL-28
SK-MEL-2 = tested on: SK-MEL-2
SK-MEL-5 = tested on: SK-MEL-5
SK-OV-3 = tested on: SK-OV-3
SN12C = tested on: SN12C
SNB-19 = tested on: SNB-19
SNB-75 = tested on: SNB-75
SR = tested on: SR
SW-620 = tested on: SW-620
T47D = tested on: T47D
TK-10 = tested on: TK-10
U-251 = tested on: U-251
UACC-257 = tested on: UACC-257
UACC-62 = tested on: UACC-62
UO-31 = tested on: UO-31
MCF7 = tested on: MCF7

Measured: GI50

N#CSc1[nH]cnc1C(N)=O
> 100 µM: HCT-15
inactive: 786-0 40.9 µM | A498 > 100 µM | A549 > 100 µM | ACHN > 100 µM | BT-549 > 80.7 µM | CAKI-1 > 44.4 µM | CCRF-CEM 5.21 µM | COLO 205 > 81.8 µM | DU-145 > 100 µM | EKVX > 100 µM | HCC 2998 > 100 µM | HCT-116 60 µM | HL-60 2.8 µM | HOP-62 > 100 µM | HOP-92 > 100 µM | HT-29 > 100 µM | Hs-578T > 100 µM | IGROV-1 > 100 µM | K562 20 µM | KM12 > 100 µM | LOX IMVI 41.3 µM | M14 62.7 µM | MDA-MB-231 55.7 µM | MDA-MB-435 > 100 µM | MDA-N 22.1 µM | MOLT-4 > 10 µM | Malme-3M 17.4 µM | NCI-H226 > 100 µM | NCI-H23 > 100 µM | NCI-H460 > 100 µM | NCI-H522 51.4 µM | NCI/ADR-RES > 85.5 µM | OVCAR-3 > 100 µM | OVCAR-4 > 100 µM | OVCAR-5 > 100 µM | OVCAR-8 > 100 µM | PC-3 > 100 µM | RPMI-8226 4.22 µM | RXF 393 > 100 µM | SF-268 > 100 µM | SF-295 > 100 µM | SF-539 77.3 µM | SK-MEL-28 76.2 µM | SK-MEL-2 > 100 µM | SK-MEL-5 > 100 µM | SK-OV-3 > 100 µM | SN12C 27.9 µM | SNB-19 > 100 µM | SNB-75 > 100 µM | SW-620 90.6 µM | T47D > 75.5 µM | TK-10 > 100 µM | U-251 > 95.9 µM | UACC-257 > 100 µM | UACC-62 79.6 µM | UO-31 > 93.5 µM
active: SR < 0.01 µM

C=C1c2ccccc2Oc2nc3nc(N)c(C#N)c(N)c3c(N)c21
inactive: 786-0 27 µM | A498 > 100 µM | A549 30.1 µM | ACHN 40.5 µM | BT-549 39.9 µM | CAKI-1 30.8 µM | CCRF-CEM 23.7 µM | COLO 205 19.6 µM | DU-145 43.7 µM | EKVX 11.9 µM | HCC 2998 19.5 µM | HCT-116 22.9 µM | HL-60 21.6 µM | HOP-62 19.1 µM | HOP-92 55.2 µM | HT-29 23.1 µM | Hs-578T 21.9 µM | IGROV-1 2.39 µM | K562 40.7 µM | KM12 18.6 µM | LOX IMVI 24.5 µM | M14 29.6 µM | MCF7 14.6 µM | MDA-MB-231 47.6 µM | MDA-MB-435 30.5 µM | MDA-N 38.4 µM | MOLT-4 23.7 µM | Malme-3M 22.8 µM | NCI-H226 20.1 µM | NCI-H23 18 µM | NCI-H460 16 µM | NCI/ADR-RES 28.4 µM | OVCAR-3 16.6 µM | OVCAR-4 42.6 µM | OVCAR-5 85.5 µM | OVCAR-8 16.4 µM | PC-3 19.3 µM | RPMI-8226 24.4 µM | RXF 393 58.1 µM | SF-268 21.6 µM | SF-295 30.3 µM | SF-539 20 µM | SK-MEL-28 41.8 µM | SK-MEL-2 17.8 µM | SK-MEL-5 17.6 µM | SK-OV-3 24.1 µM | SN12C 37.6 µM | SNB-19 40.7 µM | SNB-75 24.5 µM | SW-620 30.5 µM | T47D 51.1 µM | TK-10 39.1 µM | U-251 30.2 µM | UACC-257 53.1 µM | UACC-62 35.7 µM | UO-31 25.2 µM
16.9 µM: HCT-15
